Data as given in patent US12077503B2, “Substituted cyclic amides and their use as herbicides” (FMC CORPORATION, priority 2015, dated 2024).

Columns and labels:
Type in all cases: in vivo
[1] = tested on: barnyardgrass (Echinochloa crus-galli); experiment: Test G Pre-Emergence Protocol; details: evaluated after 13 days
Procedure: (§1) Seeds of corn (Zea mays), giant foxtail (Setaria faberi), barnyardgrass (Echinochloa crus-galli), ivy-leaved morning glory (Ipomoea hederacea), redroot pigweed (Amaranthus retroflexus) and velvetleaf (Abutilon theophrasti) were sown in standard soil in pots. After cultivation for one day under controlled conditions in a glasshouse (at 24/16° C., day/night; 14 hours light; 65% humidity), the plants were sprayed with an aqueous spray solution derived from the formulation of the technical active ingredient in acetone/water (50:50) solution containing 0.5% Tween 20 (polyoxyethylene sorbitan monolaurate, CAS RN 9005-64-5) to give a final dose of 15.625, 62.5 or 250 g/ha of test compound.
(§2) The test plants were then grown on under controlled conditions in a glasshouse (at 24/16° C., day/night; 14 hours light; 65% humidity) and watered twice daily. After 13 days the test was evaluated (100=total damage to plant; 0=no damage to plant). A dash (-) means no test result.

corn (Zea mays) [2] = experiment: Test G Pre-Emergence Protocol; details: evaluated after 13 days
Procedure: as §1, §2

[3] = tested on: giant foxtail (Setaria faberi); experiment: Test G Pre-Emergence Protocol; details: evaluated after 13 days
Procedure: as §1, §2

[4] = tested on: ivy-leaved morning glory (Ipomoea hederacea); experiment: Test G Pre-Emergence Protocol; details: evaluated after 13 days; for Morning-glory, Ivy-leaved damage rating (100=total damage to plant; 0=no damage to plant): 15.625 g ai/ha; for plant damage rating, Morningglory, Ivy-leaved: 62.5 g ai/ha, 100=total damage to plant, 0=no damage to plant
Procedure: as §1, §2

[5] = tested on: redroot pigweed (Amaranthus retroflexus); experiment: Test G Pre-Emergence Protocol; details: evaluated after 13 days; for plant damage rating, Pigweed, Redroot: 62.5 g ai/ha, 100=total damage to plant, 0=no damage to plant
Procedure: as §1, §2

[6] = tested on: velvetleaf (Abutilon theophrasti); experiment: Test G Pre-Emergence Protocol; details: evaluated after 13 days; for plant damage rating, Velvetleaf: 62.5 g ai/ha, 100=total damage to plant, 0=no damage to plant
Procedure: as §1, §2

[7] = tested on: barnyardgrass (Echinochloa crus-galli); experiment: Test G Post-Emergence Protocol; details: for Barnyardgrass damage rating: 15.625 g ai/ha, evaluated after 13 days (100=total damage to plant; 0=no damage to plant); for Barnyardgrass damage rating (100=total damage to plant; 0=no damage to plant): 62.5 g ai/ha; for Barnyardgrass damage rating (100=total damage to plant; 0=no damage to plant) / damage to plant, Barnyardgrass (100=total damage to plant; 0=no damage to plant): evaluated after 13 days; for damage to plant, Barnyardgrass (100=total damage to plant; 0=no damage to plant): 250 g ai/ha
Procedure: as §1, with “8 days” for “one day”
as §2

corn (Zea mays) [8] = experiment: Test G Post-Emergence Protocol; details: for damage to plant, Corn (100=total damage to plant; 0=no damage to plant): 250 g ai/ha
Procedure: as §1, with “8 days” for “one day”
as §2

[9] = tested on: giant foxtail (Setaria faberi); experiment: Test G Post-Emergence Protocol; details: for Foxtail, Giant damage rating: 15.625 g ai/ha, evaluated after 13 days (100=total damage to plant; 0=no damage to plant)
Procedure: as §1, with “8 days” for “one day”
as §2

[10] = tested on: ivy-leaved morning glory (Ipomoea hederacea); experiment: Test G Post-Emergence Protocol; details: for Morningglory, Ivy-leaved damage rating: 15.625 g ai/ha, evaluated after 13 days (100=total damage to plant; 0=no damage to plant); for Morningglory, Ivy-leaved damage rating (100=total damage to plant; 0=no damage to plant): 62.5 g ai/ha; for Morningglory, Ivy-leaved damage rating (100=total damage to plant; 0=no damage to plant) / damage to plant, Morningglory, Ivy-leaved (100=total damage to plant; 0=no damage to plant): evaluated after 13 days; for damage to plant, Morningglory, Ivy-leaved (100=total damage to plant; 0=no damage to plant): 250 g ai/ha
Procedure: as §1, with “8 days” for “one day”
as §2

[11] = tested on: redroot pigweed (Amaranthus retroflexus); experiment: Test G Post-Emergence Protocol; details: for Pigweed, Redroot damage rating (100=total damage to plant; 0=no damage to plant): 62.5 g ai/ha
Procedure: as §1, with “8 days” for “one day”
as §2

[12] = tested on: velvetleaf (Abutilon theophrasti); experiment: Test G Post-Emergence Protocol; details: for Velvetleaf damage rating: 15.625 g ai/ha, evaluated after 13 days (100=total damage to plant; 0=no damage to plant); for Velvetleaf damage rating (100=total damage to plant; 0=no damage to plant): 62.5 g ai/ha; for Velvetleaf damage rating (100=total damage to plant; 0=no damage to plant) / damage to plant, Velvetleaf (100=total damage to plant; 0=no damage to plant): evaluated after 13 days; for damage to plant, Velvetleaf (100=total damage to plant; 0=no damage to plant): 250 g ai/ha
Procedure: as §1, with “8 days” for “one day”
as §2

[13] = 62.5 g ai/ha, 100=total damage to plant, 0=no damage to plant
[14] = 15.625 g ai/ha, evaluated after 13 days (100=total damage to plant; 0=no damage to plant)
[15] = 62.5 g ai/ha, evaluated after 13 days
[16] = 250 g ai/ha, evaluated after 13 days

SMILES	Corn damage rating (100=total damage to plant; 0=no damage to plant) (corn (Zea mays) [2]; 15.625 g ai/ha)	Morning-glory, Ivy-leaved damage rating (100=total damage to plant; 0=no damage to plant) [4]	plant damage rating, Morningglory, Ivy-leaved [4]	Pigweed, Redroot damage rating (100=total damage to plant; 0=no damage to plant) ([5]; 15.625 g ai/ha)	plant damage rating, Pigweed, Redroot [5]	Velvetleaf damage rating (100=total damage to plant; 0=no damage to plant) ([6]; 15.625 g ai/ha)	plant damage rating, Velvetleaf [6]	Velvetleaf damage rating (100=total damage to plant; 0=no damage to plant) ([6]; 250 g ai/ha)	Barnyardgrass damage rating [7]	Barnyardgrass damage rating (100=total damage to plant; 0=no damage to plant) [7]	damage to plant, Barnyardgrass (100=total damage to plant; 0=no damage to plant) [7]	damage to plant, Corn (100=total damage to plant; 0=no damage to plant) (corn (Zea mays) [8]; evaluated after 13 days)	Foxtail, Giant damage rating [9]	Morningglory, Ivy-leaved damage rating [10]	Morningglory, Ivy-leaved damage rating (100=total damage to plant; 0=no damage to plant) [10]	damage to plant, Morningglory, Ivy-leaved (100=total damage to plant; 0=no damage to plant) [10]	Pigweed, Redroot damage rating (100=total damage to plant; 0=no damage to plant) ([11]; evaluated after 13 days)	Velvetleaf damage rating [12]	Velvetleaf damage rating (100=total damage to plant; 0=no damage to plant) [12]	damage to plant, Velvetleaf (100=total damage to plant; 0=no damage to plant) [12]	further results
CN1CC(c2ccc(C(F)(F)F)cc2)C(C(=O)Nc2cccc(Cl)c2[N+](=O)[O-])C1=O (racemic) [Compound 1639]	0	0	0	0	20	0	0	0	10	30	60	10	30	0	10	20	20	0	0	20	Barnyardgrass damage rating (100=total damage to plant; 0=no damage to plant) ([1]; 15.625 g ai/ha): 0; plant damage rating, Barnyardgrass [1, 13]: 10; Barnyardgrass damage rating (100=total damage to plant; 0=no damage to plant) ([1]; 250 g ai/ha): 30; plant damage rating, Corn (corn (Zea mays) [2]; [13]): 0; Corn damage rating (100=total damage to plant; 0=no damage to plant) (corn (Zea mays) [2]; 250 g ai/ha): 0; Foxtail, Giant damage rating (100=total damage to plant; 0=no damage to plant) ([3]; 15.625 g ai/ha): 30; plant damage rating, Foxtail, Giant [3, 13]: 60; Foxtail, Giant damage rating (100=total damage to plant; 0=no damage to plant) ([3]; 250 g ai/ha): 80; Morningglory, Ivy-leaved damage rating (100=total damage to plant; 0=no damage to plant) ([4]; 250 g ai/ha): 0; Pigweed, Redroot damage rating (100=total damage to plant; 0=no damage to plant) ([5]; 250 g ai/ha): 30; Corn damage rating (corn (Zea mays) [8]; [14]): 0; Corn damage rating (100=total damage to plant; 0=no damage to plant) (corn (Zea mays) [8]; [15]): 0; Foxtail, Giant damage rating (100=total damage to plant; 0=no damage to plant) [9, 15]: 70; damage to plant, Foxtail, Giant (100=total damage to plant; 0=no damage to plant) [9, 16]: 80; Pigweed, Redroot damage rating [11, 14]: 0; damage to plant, Pigweed, Redroot (100=total damage to plant; 0=no damage to plant) [11, 16]: 60
CN1C[C@H](c2ccc(C(F)(F)F)cc2)[C@@H](C(=O)Nc2cccc(F)n2)C1=O (racemic) [Compound 1428]	50	10	10	0	0	0	0	0	20	20	40	20	30	10	10	20	10	0	0	0	pest or weed control at 15.625 g/ha ([1]; Echinochloa crus-galli, pre-emergence, 312 h, 15.625 g ai/ha, read-out: Barnyard grass damage rating (100=total damage to plant; 0=no damage to plant)): 50%; pest or weed control at 62.5 g/ha ([1]; Echinochloa crus-galli, pre-emergence, 312 h, 62.5 g ai/ha, 100=total damage to plant, 0=no damage to plant, read-out: plant damage rating, Barnyardgrass): 60%; pest or weed control at 250 g/ha ([1]; Echinochloa crus-galli, pre-emergence, 312 h, 250 g ai/ha, read-out: Barnyardgrass damage rating (100=total damage to plant; 0=no damage to plant)): 80%; plant injury at 62.5 g/ha (corn (Zea mays) [2]; Zea mays, pre-emergence, 312 h, 62.5 g ai/ha, 100=total damage to plant, 0=no damage to plant, read-out: plant damage rating, Corn): 20%; plant injury at 250 g/ha (corn (Zea mays) [2]; Zea mays, pre-emergence, 312 h, 250 g ai/ha, read-out: Corn damage rating (100=total damage to plant; 0=no damage to plant)): 70%; pest or weed control at 15.625 g/ha ([3]; Setaria faberi, pre-emergence, 312 h, 15.625 g ai/ha, read-out: Foxtail, Giant damage rating (100=total damage to plant; 0=no damage to plant)): 70%; pest or weed control at 62.5 g/ha ([3]; Setaria faberi, pre-emergence, 312 h, 62.5 g ai/ha, 100=total damage to plant, 0=no damage to plant, read-out: plant damage rating, Foxtail, Giant): 80%; pest or weed control at 250 g/ha ([3]; Setaria faberi, pre-emergence, 312 h, 250 g ai/ha, read-out: Foxtail, Giant damage rating (100=total damage to plant; 0=no damage to plant)): 80%; pest or weed control at 250 g/ha ([4]; Ipomoea, pre-emergence, 312 h, 250 g ai/ha, read-out: Morningglory, Ivy-leaved damage rating (100=total damage to plant; 0=no damage to plant)): 40%; pest or weed control at 250 g/ha ([5]; Amaranthus retroflexus, pre-emergence, 312 h, 250 g ai/ha, read-out: Pigweed, Redroot damage rating (100=total damage to plant; 0=no damage to plant)): 80%; plant injury at 15.625 g/ha (corn (Zea mays) [8]; Zea mays, post-emergence, 312 h, 15.625 g ai/ha, evaluated after 13 days (100=total damage to plant; 0=no damage to plant), read-out: Corn damage rating): 10%; plant injury at 62.5 g/ha (corn (Zea mays) [8]; Zea mays, post-emergence, 312 h, 62.5 g ai/ha, evaluated after 13 days, read-out: Corn damage rating (100=total damage to plant; 0=no damage to plant)): 10%; pest or weed control at 62.5 g/ha ([9]; Setaria faberi, post-emergence, 312 h, 62.5 g ai/ha, evaluated after 13 days, read-out: Foxtail, Giant damage rating (100=total damage to plant; 0=no damage to plant)): 50%; pest or weed control at 250 g/ha ([9]; Setaria faberi, post-emergence, 312 h, 250 g ai/ha, evaluated after 13 days, read-out: damage to plant, Foxtail, Giant (100=total damage to plant; 0=no damage to plant)): 60%; pest or weed control at 15.625 g/ha ([11]; Amaranthus retroflexus, post-emergence, 312 h, 15.625 g ai/ha, evaluated after 13 days (100=total damage to plant; 0=no damage to plant), read-out: Pigweed, Redroot damage rating): 10%; pest or weed control at 250 g/ha ([11]; Amaranthus retroflexus, post-emergence, 312 h, 250 g ai/ha, evaluated after 13 days, read-out: damage to plant, Pigweed, Redroot (100=total damage to plant; 0=no damage to plant)): 40%
